A short description of series [1]: in vitro. Conditions: human.
For series [2], the system named is MERS-CoV. The series is described as follows: microbe, parasite or virus in culture. It counts as cell-based.
For series [3], the system named is MERS-CoV. Type of series: cell-based.
Series [4] has as its system HCoV-229E. The series is described as follows: microbe, parasite or virus in culture. Conditions: Human coronavirus 229E. Type of series: cell-based.
Series [5] can be described thus: in vitro. Particulars: cat.
The subject of series [6] is MERS-CoV. It counts as cell-based. The source holds these as a separate data set.
Series [7] deals with MERS-CoV. It counts as cell-based. This is another data set of the same source.
The test system of series [8] is MERS-CoV. Type of series: cell-based. The source holds these as a separate data set.
Series [9] concerns HCoV-OC43. The series is described as follows: microbe, parasite or virus in culture. Type of series: cell-based, betacoronavirus OC43 strain. Particulars: Betacoronavirus 1, OC43.
Series [10] has as its system MERS-CoV. It counts as cell-based. The source holds these as a separate data set.
For series [11], the system named is rMERS-CoV. As to the kind of experiment: microbe, parasite or virus in culture. It counts as cell-based, MERS-CoV. Conditions: Middle East respiratory syndrome-related coronavirus, Huh-7, 72 h.
Series [12] concerns Feline infectious peritonitis virus (FIPV). The series is described as follows: microbe, parasite or virus in culture. Conditions: Alphacoronavirus 1. Type of series: cell-based.
Series [13] has as its system Huh-7 cells.
In series [14] the test system is MERS-CoV nucleocapsid (N) protein. It counts as cell-based.
Setting [15] is: Middle East respiratory syndrome-related coronavirus, Huh-7, 72 h.

Structures are written as SMILES. Counter-ions that a name gives are not always drawn. Like-named read-outs stand apart in the source and are kept apart here.

By EC50 is commonly meant the concentration that produces a half-maximal response. As for `CN(C)CC/C=C1\c2ccccc2CSc2ccccc21` [Dosulepin hydrochloride], the CC50 in [1] was 28.9 µM. The compound also registered an EC50 in [2] (setting [15]) of 3.4 µM.

On to `CN1CCN(CCOc2cc(OC3CCOCC3)c3c(Nc4c(Cl)ccc5c4OCO5)ncnc3c2)CC1` [Saracatinib], for which the “reduction of viral titer” value in [3] is “marginal reduction”. Also, the EC50 was determined as 2.4 µM in series [4]; 5.1 µM in series [9]; 2.9 ± 0.6 µM in series [2] (setting [15]); 9.3 µM in [11]; 7 µM in series [12]. Further, the CC50 in series [5] is over 50 µM; in series [13] (human) it was 57 ± 5.5 µM. Besides, the “reduction in infectious virus titers” value in series [6] was ~ 80%. The “intracellular viral genomic RNA and mRNA expressions” value in series [7] is “significant decrease”. For the same compound, the “syntheses of intracellular viral genomic RNA and mRNAs” value in series [7] is “severely affected”. Moreover, the “viral genomic RNA and mRNA syntheses” value in [7] is recorded as “near complete inhibition”. Besides, the “antiviral activity (viral titer)” value in series [8] is on record as “less effective”. In series [8], the “reduction of MERS-CoV titer” value is given as “more pronounced”. Also, the viral titer result in [8] was “marked reduction”. Further, the “selectivity index (SI)” value in series [2] is over 17. Moreover, the “intracellular viral genomic (ORF1a) and mRNA (upE) syntheses” value in [10] was “near complete inhibition”.

Consider `CN1CCN(c2nc(C3=C(c4c[nH]c5ccccc45)C(=O)NC3=O)c3ccccc3n2)CC1` [Sotrastaurin], for which, in series [1], the CC50 was over 50 µM. Besides, the EC50 in series [2] (setting [15]) was about 9.7 µM.

For the compound `OCCOCCN1CCN(C(c2ccccc2)c2ccc(Cl)cc2)CC1` (stereo not shown) [Hydroxyzine pamoate], the CC50 in [1] was over 50 µM. This compound had an EC50 in [2] (setting [15]) of 14.4 ± 3.4 µM.

`CCN(CCO)CCCC(C)Nc1ccnc2cc(Cl)ccc12` (stereo not shown) [Hydroxychloroquine sulfate] gave a CC50 in [1] of over 50 µM. Besides, in [2] (setting [15]), it took 13.3 ± 2.1 µM to reach a half-maximal effect (EC50).

On to `O=C(Nc1ccncc1)c1cc([N+](=O)[O-])ccc1Cl` [N1-(4-pyridyl)-2-chloro-5-nitrobenzamide], for which, in series [1], the CC50 is over 50 µM. The same compound returned an EC50 in series [2] (setting [15]) of 10.5 ± 0.3 µM.

As to `COc1ccc2c(c1)N(C[C@H](C)CN(C)C)c1ccccc1S2` [Methotrimeprazine maleate salt], in series [2] (read-out: EC50), the EC50 was found to be 2.5 µM. The same compound gave a CC50 in series [13] of 24.5 µM.

Consider `CCN(CC)Cc1cc(Nc2ccnc3cc(Cl)ccc23)ccc1O` [Amodiaquine dihydrochloride dehydrate], for which the EC50 in series [2] (read-out: EC50) was determined as 2.4 ± 0.7 µM.

As to `Nc1ccn([C@@H]2O[C@H](CO)[C@@H](O)C2(F)F)c(=O)n1` [Gemcitabine, gemcitabine hydrochloride], the “production of infectious MERS-CoV particles” value in [3] is given as “completely abolished”. The “viral N protein expression” value in [14] is “completely abolished”. The compound further displayed an EC50 in series [2] (setting [15]) of 1.2 µM.

As to `CCN(CC)Cc1cc(Nc2ccnc3cc(Cl)ccc23)ccc1O` [Amodiaquine dihydrochloride], the EC50 in series [2] (read-out: EC50) stood at 2.1 ± 0.7 µM.

As for `CC(=O)c1ccc2c(c1)N(CCCN1CCN(CCO)CC1)c1ccccc1S2` [Acetophenazine maleate], in [2] (read-out: EC50), the EC50 was determined as 11.2 ± 5 µM. The CC50 in series [13] was found to be 23.6 ± 3.8 µM.

In turn, `COc1ccc(C2=N[C@@H](c3ccc(Cl)cc3)[C@@H](c3ccc(Cl)cc3)N2C(=O)N2CCNC(=O)C2)c(OC(C)C)c1` [Nutlin-3] registered a CC50 in series [1] of 26.8 ± 1.6 µM. In addition, in [2] (setting [15]), the EC50 turned out to be 6.9 ± 1.4 µM.

The compound `CCN(CC)CCCC(C)Nc1ccnc2cc(Cl)ccc12` (stereo not shown) [Chloroquine diphosphate] showed a CC50 in [1] of over 50 µM. This compound registered an EC50 in [2] (setting [15]) of 12 ± 3 µM.
